Results reported in patent publication US6147107A, “Specific inhibition of the P42/44 mitogen activated protein (map) kinase cascade sensitizes tumor cells” (priority 1998, dated 2000).

Experiments:
HL-60 cells [1] = experiment: Clonogenicity of HL-60 cells; assay type: cell-based, human; conditions: either agent alone
Protocol: FIGS. 9a and 9b. […] HL-60 cells were exposed to ara-C (10 μM) in the absence or presence of aminomethoxyflavone (PD98059; 2.5 μM) for 6 hours. Apoptotic DNA damage and cell death were assessed as described in Methods. […] FIG. 9b.
Determination of Clonogenicity: Pelleted cells were rinsed extensively and prepared for soft-agar cloning. Cells were resuspended in cold PBS and seeded in 35-mm culture plates at a fixed density (400 cell/ml/well) in complete RPMI-1640 medium containing 20% fetal calf serum, 10% 5637-CM, and 0.3% Bacto agar. Cultures were mainatined for 10 to 12 days before formation of colonies (defined as groups of ≥50 cells) was scored.

p42/44 MAP kinase = experiment: MAP kinase activity in HL-60 cells (immunoprecipitation, MBP substrate); assay type: cell-based, human; conditions: ara-C
Protocol: FIG. 8. […] HL-60 cells were exposed to ara-C (10 μM) in the absence or presence of aminomethoxyflavone (PD98059; 2.5 μM) for 3 hours. MAP kinase activity (p42-ERK1/p44-ERK2) was determined by in vitro assay. In each case, values reflect the mean ±SE of duplicate determinations, and are expressed as a percentage of basal activity present in untreated controls.
Determination of MAPK Activity: Pelleted cells were rinsed in PBS, repelleted, and flash-frozen. Cell pellets were lysed in 25 mM Hepes, pH 7.4 containing 5 mM EGTA, 5 mM EDTA, supplemented with protease inhibitors (5 mM benzamidine, 1 mM phenylmethylsulfonylfluoride, 1 mg/ml soybean trypsin inhibitor, 40 μg/ml aprotinin, 1 μM microcystin LR) phosphatase inhibitors (0.5 mM trisodium orthovanadate, 0.5 mM tetrasodium pyrophosphate), and containing 0.056% sodium deoxycholate w/v, 1% Triton X-100 v/v, and 0.1% 2-mercaptoethanol v/v. Lysates were clarified by centrifugation at 5,000× g at 4° C. for 5 min. MAPK activity was assayed using MBP as a substrate following immunoprecipitation of p42/44 MAP kinase with protein A/agarose-conjugated antibody/antisera. Preimmune controls were also run to ensure selectivity of substrate phosphorylation. Reaction mixtures consisted of immunoprecipitated enzyme, substrate, and [γ-^32 P] ATP ([…]) in 25 mM Hepes, pH 7.4 containing 15 mM MgCl2, […], 0.01% (v/v) 2-mercaptoethanol, 1 μM […]. Reactions were initiated by the addition of substrate. MAPK reactions were terminated by transfer to p81 filter paper; filters were rinsed repeatedly in 185 mM orhtophosphoric acid, and then dehydrated in acetone. Total radioactivity in filters was determined by liquid scintillometry.
HL-60 cells were exposed to ara-C in the absence or presence of PD98059. Following this treatment, the cells were eveluated for MAP kinase activity, DNA strand breakage, clonogenicity potential and extent of apoptosis.

MEK1 and MEK2 [2] = conditions: general statement on known inhibitors; cited from earlier work
HL-60 cells [3] = experiment: Taxol-mediated apoptosis of HL-60 cells; conditions: Homo sapiens, HL-60, 6 h, read-out: cell death, taxol alone
MEK1 and MEK2 [4] = experiment: Inhibition of Raf-mediated phosphorylation/activation of MEK1/2; assay type: biochemical; conditions: for inhibition of MEK1 and MEK2: general statement; for inhibition of Raf phosphorylation of MEK1 and MEK2: stated as demonstrated by the applicant
cancer cells = experiment: Radiosensitization of cancer cells; assay type: cell-based; conditions: general statement
A431 cells [5] = experiment: TUNEL assay, apoptosis of A431 cells after radiation; assay type: cell-based, human; conditions: 2 μM inhibitor + 2 Gy, 24 hours
Protocol: The ability of the cells to survive was assessed using TUNEL assays 24 hours after irradiation and the results are depicted in FIG. 4.

primary hepatocytes = experiment: TUNEL assay, primary hepatocytes after radiation; assay type: cell-based; conditions: SL327 (2 μM) + 2×2 Gy, 12 hours
Protocol: (§1) Experimental cells were exposed to radiation (2×2 Gy), or treated with the p42/44 MAP kinase inhibitory drug SL327 (2 μM), or treated with SL327 and exposed to radiation. Twelve hours after the final irradiation, cells were assessed by the TUNEL assay.
(§2) This is highly relevant because the neoplastic cells which are targeted for destruction by radiation therapy are rapidly proliferating, in contrast to most normal slowly growing somatic cells. Primary hepatocytes (representing slow growing "normal" cells) and HepG2 hepatoma cells derived from a cancerous cell line were cultured under identical conditions. Control cells of both types were left untreated. Matched samples of both cell types were treated with the p42/44 MAP kinase cascade inhibitory drug SL327, or exposed to radiation (2×2 Gy), or treated with SL327 and exposed to radiation. Twelve hours after the final irradiation, cells were processed and the number of dead (apoptoic) cells was determined by the TUNEL assay. […] Furthermore, the effect is specific for rapidly growing cells.

HepG2 hepatoma cells = experiment: TUNEL assay, HepG2 hepatoma cells after radiation; assay type: cell-based; conditions: SL327 (2 μM) + 2×2 Gy, 12 hours
Protocol: as §1, §2

[6] = system: MDA-MB-231 mammary cancer cells
Protocol: To further extend these investigations, the efficacy of U0126 was tested in the mammary cancer cell line MDA-MB-23 1. As described in the previous experiment, cells were exposed to 2 μM U0126 alone, radiation (3×2 Gy) alone, or to the combination of U0126 plus radiation. Control cells were treated with vehicle alone.

A431 cells [7] = system: A431 cells

SMILES | mode of action at MEK1/2 (MEK1 and MEK2 [2]) | inhibition of MEK1 and MEK2 (MEK1 and MEK2 [4]) | inhibition of Raf phosphorylation of MEK1 and MEK2 (MEK1 and MEK2 [4]) | radiosensitization of cancer cells (cancer cells) | percentage of apoptotic cells (TUNEL) (A431 cells [5]) | other results
Cl.Nc1ccn([C@@H]2O[C@H](CO)[C@@H](O)[C@@H]2O)c(=O)n1 [ara-C, 1-[β-D-arabinofuranosyl] cytosine hydrochloride] | – | – | – | – | – | clonogenic potential, single agent (HL-60 cells [1]): neither alone had this effect; MAP kinase activity, effect of ara-C (p42/44 MAP kinase): stimulation of MAP kinase
O=C(NOCC1CC1)c1ccc(F)c(F)c1Nc1ccc(I)cc1Cl [PD184352] | bind to MEK1/2 and sterically prevent Raf from binding | – | – | – | – | –
CC(=O)O[C@H]1C(=O)[C@@]2(C)[C@H]([C@H](OC(=O)c3ccccc3)[C@]3(O)C[C@H](OC(=O)[C@H](O)[C@@H](NC(=O)c4ccccc4)c4ccccc4)C(C)=C1C3(C)C)[C@]1(OC(C)=O)CO[C@@H]1C[C@@H]2O [taxol] | – | – | – | – | – | cytotoxicity at 0.5 µM (HL-60 cells [3]): ~27%
N#C/C(=C(/N)Sc1ccc(N)cc1)c1ccccc1C(F)(F)F [SL327] | bind to MEK1/2 and sterically prevent Raf from binding | all inhibit MEK1 and MEK2 | inhibiting the ability of Raf protein kinases to phosphorylate MEK1 and MEK2 | all cause radiosensitization of cancer cells | dramatic increase in the percentage of apoptotic cells | response to combined drug/radiation therapy (TUNEL) (primary hepatocytes): fairly resistant; increase in cell killing compared to radiation alone (HepG2 hepatoma cells): approximately 2.5 fold; response to combined drug/radiation treatment (TUNEL) (HepG2 hepatoma cells): effectively killed
N#CC(=C(N)Sc1ccccc1N)C(C#N)=C(N)Sc1ccccc1N [U0126, 1,4-diamino-2,3-dicyano-1,4-bis[2-aminophenylthio]butadiene] | bind to MEK1/2 and sterically prevent Raf from binding | all inhibit MEK1 and MEK2 | inhibiting the ability of Raf protein kinases to phosphorylate MEK1 and MEK2 | all cause radiosensitization of cancer cells | dramatic increase in the percentage of apoptotic cells | decreasing cellular proliferative potential versus either treatment alone (MTT) ([6]; 2 μM U0126 + 3×2 Gy): far more effective; proliferative rate (MTT) ([6]; 2 μM U0126 alone or with 3×2 Gy, 3-4 days): Decreased proliferative rate; abolishing cellular proliferation versus U0126 alone or irradiation alone (MTT) (A431 cells [7]; 2 μM U0126 + 3×2 Gy): markedly more effective; proliferative rate (MTT) (A431 cells [7]; 2 μM U0126 alone or with 3×2 Gy, 4-8 days): Decreased proliferative rate
